Source: paper PMC10350924, “Design, Synthesis, and Pharmacological Characterization of a Potent Soluble Epoxide Hydrolase Inhibitor for the Treatment of Acute Pancreatitis” (Journal of Medicinal Chemistry, 2023)

What was measured:
[1] = Chemical stability in phosphate buffer pH 7.4; assay type: physicochemical; conditions: 5 μM
Source text: The chemical and metabolic stabilities of compounds 6, 27, 28, 30, and 36 were monitored using a UHPLC system (Shimadzu, Kyoto, Japan) consisting of a CBM-40 Lite controller, two LC-40B X3 solvent delivery modules, an SPD-M40 photodiode array detector, a CTO-30A column oven and, a SIL-40AC X3 autosampler. The UHPLC system was coupled online to LCMS-2020 single quadrupole mass spectrometer (Shimadzu, Kyoto, Japan) equipped with an electrospray ionization (ESI) source operating in positive mode.
The chromatographic separation was accomplished on a Luna Omega 1.6 μm Polar C18 100 Å, 100 mm × 2.1 mm (Phenomenex, Bologna, Italy) maintained at 40 °C. The optimal mobile phase consisted of 0.1% HCOOH/H2O v/v (A) and 0.1% HCOOH/ACN v/v (B) delivered at a constant flow rate of 0.3 mL min^–1. Analysis was performed in gradient elution as follows: 0–8.00 min, 30–95% B; 8.00–10.00 min, isocratic to 95% B, then 5 min for column re-equilibration.
The ESI was operated in positive mode, with the following parameters: interface temperature, 350 °C; interface voltage, 4.5 kV; DL (desolvation line) temperature, 250 °C; block heater temperature, 200 °C; nebulizing gas flow (N2), 1.5 L min^–1; drying gas pressure, 15 L min^–1. Quantification was performed in SIM (single-ion monitoring) mode.
For the calibration curves, the primary stock solutions (10 mM) of compounds 6, 27, 28, 30, and 36 were prepared in DMSO. The working standard solutions were prepared by serial dilution of the stock solutions in methanol to obtain necessary concentrations (0.25–10 μM). A solution containing an internal standard (IS: tolbutamide) was prepared at 10 μM in methanol. Quantitation of compounds 6, 27, 28, 30, and 36 was performed using linear regression of the response ratios obtained from the calibration curve to calculate the corresponding amount (6: y = 1.97175x + 0.53508, R^2 = 0.9998; 27: y = 2.90980x + 0.03831, R^2 = 0.9993; 28: y = 2.05962x + 0.02242, R^2 = 0.9994; 30: y = 1.98080x + 0.14962, R^2 = 0.9997; 36: y = 4.59526x – 0.13459, R^2 = 0.9991).
1.25 μL of test compounds (5 μM final incubation concentration) was incubated in 200 μL of phosphate buffer at pH 7.4. At each specified time point (0, 0.5, 1, 1.5, and 2 h), the analyte was removed into 200 μL of ice-cold methanol containing internal standard (tolbutamide) to stop degradation. Finally, the concentration of the test compound was quantified by LC-MS. The percentage of compound remaining (relative to the 0 min time point) at the individual time points is then reported. All experiments were performed in triplicate.

[2] = system: PGE2 production in LPS-stimulated J774 murine macrophages; experiment: PGE2 production in LPS-stimulated J774 macrophages; assay type: cell-based; conditions: Mus musculus; J774, 2 h pre-treatment 0.1–10 μM, LPS 10 μg/mL 24 h; read-out: IC50 for reduction of PGE2 levels
Procedure: Murine monocyte/macrophage J774 cell line was obtained from the American Type Culture Collection (ATTC TIB 67). The cell line was grown in adhesion in Dulbecco’s modified Eagle’s medium (DMEM) supplemented with glutamine (2 mM, Aurogene Rome, Italy), Hepes (25 mM, Aurogene Rome, Italy), penicillin (100 U/mL, Aurogene Rome, Italy), streptomycin (100 μg/mL, Aurogene Rome, Italy), fetal bovine serum (FBS, 10%, Aurogene Rome, Italy), and sodium pyruvate (1.2%, Aurogene Rome, Italy) (DMEM completed). The cells were plated at a density of 1 × 10^6 cells in 75 cm^2 culture flasks and maintained at 37 °C under 5% CO2 in a humidified incubator until 90% confluence. The culture medium was changed every 2 days. Before a confluent monolayer appeared, subculturing cell process was carried out. Cells (0.5 × 10^6 cells/mL) were pretreated for 2 h in the absence or presence of 28 (0.1–10 μM) and then stimulated, for 24 h, with lipopolysaccharide (LPS) from E. coli, Serotype 0111:B4, (10 μg/mL; 100 μL in DMEM completed with FBS, Sigma-Aldrich, Milan, Italy).[42] The supernatants were collected for the measurement of PGE2 levels by ELISA assay (Cayman Chemical, Vinci-Biochem, Vinci, Italy).

[3] = 0.5 h, compound remaining relative to 0 min

| Structure (SMILES) | chemical stability in phosphate buffer (pH 7.4) [1, 3] | chemical stability in phosphate buffer (pH 7.4) ([1]; 1.0 h) | chemical stability in phosphate buffer (pH 7.4) ([1]; 1.5 h) | chemical stability in phosphate buffer (pH 7.4) ([1]; 2.0 h) | IC50 [2] |
| --- | --- | --- | --- | --- | --- |
| O=C(Nc1ccc2c(c1)CCN2Cc1ccc(F)cc1)NC12C[C@H]3C[C@@H](C1)C[C@@H](C2)C3 [Compound 6, 1-((3S,5S,7S)-Adamantan-1-yl)-3-(1-(4-fluorobenzyl)indolin-5-yl)urea] | 97.9 ± 3.5% | 100.7 ± 4.3% | 100.5 ± 3.5% | 102.4 ± 0.1% | – |
| O=C(NCC12C[C@H]3C[C@@H](C1)C[C@@H](C2)C3)Nc1ccc2c(ccn2Cc2ccc(F)cc2)c1 [Compound 27, 1-(((3R,5R,7R)-Adamantan-1-yl)methyl)-3-(1-(4-fluorobenzyl)-1H-indol-5-yl)urea] | 99.2 ± 1.7% | 95.5 ± 4.5% | 98.9 ± 0.2% | 96.4 ± 0.5% | – |
| CC(C)c1ccc(Cn2ccc3cc(NC(=O)NCC45C[C@H]6C[C@@H](C4)C[C@@H](C5)C6)ccc32)cc1 [Compound 28, 1-(((3R,5R,7R)-Adamantan-1-yl)methyl)-3-(1-(4-isopropylbenzyl)-1H-indol-5-yl)urea] | 102.0 ± 2.7% | 101.7 ± 1.9% | 99.7 ± 2.3% | 102.4 ± 1.8% | > 10 µM |
| O=C(NCC12C[C@H]3C[C@@H](C1)C[C@@H](C2)C3)Nc1ccc2c(ccn2CCc2ccc(F)cc2)c1 [Compound 30, 1-(((3R,5R,7R)-Adamantan-1-yl)methyl)-3-(1-(4-fluorophenethyl)-1H-indol-5-yl)urea] | 102.5 ± 1.1% | 100.3 ± 1.9% | 99.6 ± 0.2% | 102.4 ± 3.5% | – |
| O=C(NCC12C[C@H]3C[C@@H](C1)C[C@@H](C2)C3)Nc1ccc2c(ccn2C(=O)c2ccc(F)cc2)c1 [Compound 36, 1-(((3R,5R,7R)-Adamantan-1-yl)methyl)-3-(1-(4-fluorobenzoyl)-1H-indol-5-yl)urea] | 96.3 ± 3.2% | 95.2 ± 1.8% | 99.8 ± 2.1% | 92.4 ± 2.0% | – |
